Data published in patent US6825348B2, “Antiviral compounds” (Academia Sinica, priority 2002, dated 2004).
Converted amounts (≈) assume the structure as drawn. Where two headings read alike, the source gives them in different places.

Tests used:
[1] = molecular target: PRPP synthetase (UniProt P0A717); experiment: PRPP synthetase reaction, conversion to diphosphates and inhibition of AMP phosphorylation; assay type: biochemical; conditions: compound as substrate of PRPP synthetase
Procedure: Enzymatic Conversion of Acyclic Nucleoside Phosphonates and Nucleotide 5′-Monophosphate Analog to Their Antivirally Active Diphosphates (Triphosphate Equivalents). Substrate affinities of acyclic nucleoside phosphonates 4, 20, 21, and dinucleotide analog 24 for PRPP synthetase as well as their inhibitory effect against the enzyme were evaluated according to the established procedures. See, e.g., Balzarini et al. (1991) J. Biol. Chem. 266: 8686-8689 and references cited therein. The assays were then terminated after 4 h by the addition of MeOH. HPLC on an anion-exchange Partisphere column was used to analyze the formation of […] 21pp, PMEApp, 4pp, 20pp, and 24pp.

[2] = test system: herpes simplex type 1 virus (HSV-1) (KOS); experiment: Inhibition of HSV-1 cytopathogenicity in Vero cell culture; assay type: cell-based; conditions: for IC50 HSV-1 (KOS): Vero cell culture, 50% inhibition of virus-induced cytopathogenicity, mean of duplicates, for 1:1 (W/W) mixtures IC50 refers to known antiviral drugs
[3] = test system: herpes simplex type 2 virus (HSV-2) (G); experiment: Inhibition of HSV-2 cytopathogenicity in Vero cell culture; assay type: cell-based; conditions: 50% inhibition of cytopathogenicity, for 1:1 mixtures IC50 refers to known antiviral drugs
[4] = test system: thymidine kinase-positive (TK+) varicella-zoster virus (YS); experiment: Inhibition of TK+ VZV cytopathogenicity in Vero cell culture; assay type: cell-based
[5] = test system: thymidine kinase-deficient (TK−) varicella-zoster virus (YS/R); experiment: microbe, parasite or virus in culture; assay type: cell-based; conditions: for IC50 TK−VZV (YS/R): Vero cell culture, 50% inhibition of cytopathogenicity, for 1:1 mixtures IC50 refers to known antiviral drugs
[6] = test system: human cytomegalovirus (AD-169); experiment: Inhibition of HCMV cytopathogenicity in Vero cell culture; assay type: cell-based; conditions: Vero cell culture, 50% inhibition of cytopathogenicity, for 1:1 mixtures IC50 refers to known antiviral drugs
[7] = test system: HeLa cells
[8] = test system: Vero cells
[9] = molecular target: T1, calf mucosal adenosine deaminase (ADA, EC 3.5.4.4) (Bos taurus, UniProt P56658); experiment: Substrate activity and competitive inhibition of adenosine deaminase; assay type: biochemical
T1 sequence (P56658 1-363): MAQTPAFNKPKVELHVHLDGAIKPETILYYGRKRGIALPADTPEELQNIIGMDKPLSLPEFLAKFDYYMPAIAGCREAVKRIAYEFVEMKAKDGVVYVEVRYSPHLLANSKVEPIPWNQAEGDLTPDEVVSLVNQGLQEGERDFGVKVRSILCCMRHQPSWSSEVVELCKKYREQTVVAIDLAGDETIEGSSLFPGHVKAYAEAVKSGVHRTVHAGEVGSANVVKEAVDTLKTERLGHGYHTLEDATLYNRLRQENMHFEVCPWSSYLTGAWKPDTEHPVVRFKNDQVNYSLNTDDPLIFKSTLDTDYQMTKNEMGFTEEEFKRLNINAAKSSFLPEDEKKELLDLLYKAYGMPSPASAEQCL

[10] = test system: HIV-1 (IIIB); experiment: microbe, parasite or virus in culture; assay type: cell-based; conditions: Human immunodeficiency virus 1, IIIB; MT4 cells, average of duplicates; read-out: IC50 HIV-1 (IIIB)
[11] = test system: HIV-2 (LAV-2); experiment: Inhibition of HIV-2 cytopathogenicity in MT4 cells; assay type: cell-based, human immunodeficiency virus; conditions: Human immunodeficiency virus 2; MT4 cells, average of duplicates; read-out: IC50 HIV-2 (LAV-2)
[12] = test system: moloney murine sarcoma virus (MSV); experiment: Inhibition of MSV cytopathogenicity in CEM cells (cell-protection assay); assay type: cell-based; conditions: Moloney murine sarcoma virus, CCRF-CEM; CEM cells, average of duplicates; read-out: IC50 MSV
[13] = test system: HSV-1 (KOS); experiment: Anti-HSV-1 activity in vivo, HSV-1-induced mortality in NMRI mice; conditions: 6 days; for mean day of animal death / mean day of symptom initiation: terminated day 21; for responders at 100 mg/kg / responders at 150 mg/kg / responders at 250 mg/kg: Human alphaherpesvirus 1, ip, 504 h
[14] = test system: MSV; conditions: for mean day of animal death / percentage of MSV-infected mice alive at day 21 postinfection / percentage of MSV-infected mice without tumors at day 21 postinfection: two injections; for mean day of tumor initiation: two injections within two days
[15] = test system: MT4 cells; experiment: Toxicity toward MT4 cells
[16] = test system: CEM cells; experiment: Toxicity toward CEM cells
[17] = LD50 and toxicity in mice, intraperitoneal
[18] = Lipophilicity, 1-octanol/water partition coefficient
[19] = Solubility in water (phosphate buffer, UV absorbance)
[20] = molecular target: HSV thymidine kinase (Human herpesvirus 1, UniProt P0DTH5); experiment: Phosphorylation of nucleosides by HSV thymidine kinase; assay type: biochemical
[21] = test system: Vero cell thymidine kinase; experiment: Phosphorylation of nucleosides by Vero cell thymidine kinase; assay type: biochemical
[22] = Vero cell culture, 50% inhibition of cytopathogenicity, for 1:1 mixtures IC50 refers to known antiviral drugs

Sequence of HSV thymidine kinase (P0DTH5 whole entry, looked up): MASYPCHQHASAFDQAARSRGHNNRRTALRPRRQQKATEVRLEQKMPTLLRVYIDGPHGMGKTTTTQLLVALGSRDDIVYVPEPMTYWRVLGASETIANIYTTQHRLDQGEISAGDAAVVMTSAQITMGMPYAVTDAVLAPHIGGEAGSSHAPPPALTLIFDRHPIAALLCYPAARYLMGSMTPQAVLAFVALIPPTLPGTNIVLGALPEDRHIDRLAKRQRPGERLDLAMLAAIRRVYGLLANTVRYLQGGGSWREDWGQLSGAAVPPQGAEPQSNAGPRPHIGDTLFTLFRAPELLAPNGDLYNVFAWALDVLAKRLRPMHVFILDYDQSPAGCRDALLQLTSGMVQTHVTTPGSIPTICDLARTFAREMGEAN

Nc1ncnc2c1ncn2[C@@H]1O[C@H](COP(=O)(O)O)[C@@H](O)[C@H]1O [AMP 21, adenosine 5′-monophosphate, reference compound]
Km [1]: 0.24 mM

Nc1nc2ncn(COCCCl)c2c(=O)[nH]1 [Compound 7, 7-[(2-Chloroethoxy)methy]guanine]
IC50 HSV-1 (KOS) [2]: >128 µg/mL
IC50 HSV-2 (G) [3]: >128 µg/mL
IC50 TK+VZV (YS) [4, 22]: >128 µg/mL
IC50 TK−VZV (YS/R) [5]: >128 µg/mL
IC50 HCMV (AD-169) [6]: >128 µg/mL
HeLa cell, concentration causing microscopically visible change or disruption in about 50% of the cell sheet [7]: 157 µg/mL
Vero cell, concentration causing microscopically visible change or disruption in about 50% of the cell sheet [8]: 145 µg/mL

Nc1ncnc2ncn(COCCCl)c12 [Compound 12, 7-[(2-Chloroethoxy)methy]adenine]
IC50 HSV-1 (KOS) [2]: >128 µg/mL
IC50 HSV-2 (G) [3]: >128 µg/mL
IC50 TK+VZV (YS) [4, 22]: >128 µg/mL
IC50 TK−VZV (YS/R) [5]: >128 µg/mL
IC50 HCMV (AD-169) [6]: >128 µg/mL
HeLa cell, concentration causing microscopically visible change or disruption in about 50% of the cell sheet [7]: 169 µg/mL
Vero cell, concentration causing microscopically visible change or disruption in about 50% of the cell sheet [8]: 165 µg/mL

COC1=C(OC)/C(=C/COP(=O)(O)COCCn2cnc3c(N)ncnc32)OC1=O [Compound 28, [1-(Adenin-9-yl-ethoxy)methyl]phosphono-6-yl-(Z)-4-(ethylidene)-2,3-dimethoxy-Δ^a,b-butenolide]
ADA substrate / inhibitor property in words [9]: neither a good substrate nor an inhibitor
IC50 ([2]; Human alphaherpesvirus 1, Vero, read-out: IC50 HSV-1 (KOS)): 3.7 µg/mL (≈ 8.38 µM)
IC50 TK+VZV (YS) [4]: 2.0 µg/mL (≈ 4.53 µM)
IC50 ([5]; Human alphaherpesvirus 3, Vero, read-out: IC50 TK−VZV (YS/R)): 2.4 µg/mL (≈ 5.44 µM)
IC50 ([6]; Human betaherpesvirus 5, AD169, read-out: IC50 HCMV (AD-169)): 5.4 µg/mL (≈ 12.2 µM)
IC50 [10]: 1.4 µg/mL (≈ 3.17 µM)
IC50 [11]: 1 µg/mL (≈ 2.27 µM)
IC50 [12]: 0.93 µg/mL (≈ 2.11 µM)
protection against HSV-induced mortality ([13]; 100 mg/kg i.p.): same level of protection
mean day of animal death ([13]; 100 mg/kg/day i.p.): >21 days
mean day of symptom initiation ([13]; 100 mg/kg/day i.p.): >21 days
mean day of animal death ([13]; 150 mg/kg/day i.p.): >21 days
mean day of symptom initiation ([13]; 150 mg/kg/day i.p.): >21 days
mean day of animal death ([13]; 250 mg/kg/day i.p.): >21 days
mean day of symptom initiation ([13]; 250 mg/kg/day i.p.): >21 days
responders at 100 mg/kg ([13]; 100 mg/kg/day i.p., read-out: percentage of HSV-1-infected mice alive at day 21 postinfection): 100%
responders at 100 mg/kg ([13]; 100 mg/kg/day i.p., read-out: percentage of HSV-1-infected mice without symptoms at day 21 postinfection): 100%
responders at 150 mg/kg ([13]; 150 mg/kg/day i.p., read-out: percentage of HSV-1-infected mice alive at day 21 postinfection): 100%
responders at 150 mg/kg ([13]; 150 mg/kg/day i.p., read-out: percentage of HSV-1-infected mice without symptoms at day 21 postinfection): 100%
responders at 250 mg/kg ([13]; 250 mg/kg/day i.p., read-out: percentage of HSV-1-infected mice alive at day 21 postinfection): 100%
responders at 250 mg/kg ([13]; 250 mg/kg/day i.p., read-out: percentage of HSV-1-infected mice without symptoms at day 21 postinfection): 100%
HeLa cell, concentration causing microscopically visible change or disruption in about 50% of the cell sheet ([7]; human): 139 µg/mL
Vero cell, concentration causing microscopically visible change or disruption in about 50% of the cell sheet ([8]; African green monkey): 170 µg/mL
mean day of animal death ([14]; 10 mg/kg/day i.p.): 18.9 ± 1.8 days
percentage of MSV-infected mice alive at day 21 postinfection ([14]; 10 mg/kg/day i.p.): (97%)
mean day of tumor initiation ([14]; 10 mg/kg/day i.p.): 14.0 ± 2.1 days
mean day of animal death ([14]; 20 mg/kg/day i.p.): >21 days
percentage of MSV-infected mice alive at day 21 postinfection ([14]; 20 mg/kg/day i.p.): (100%)
percentage of MSV-infected mice without tumors at day 21 postinfection ([14]; 20 mg/kg/day i.p.): (80%)
mean day of tumor initiation ([14]; 20 mg/kg/day i.p.): 17.9 ± 1.7 days
mean day of animal death ([14]; 50 mg/kg/day i.p.): >21 days
percentage of MSV-infected mice alive at day 21 postinfection ([14]; 50 mg/kg/day i.p.): (100%)
percentage of MSV-infected mice without tumors at day 21 postinfection ([14]; 50 mg/kg/day i.p.): (95%)
mean day of tumor initiation ([14]; 50 mg/kg/day i.p.): 18.4 ± 1.4 days
weight loss in surviving animals ([14]; MSV-infected NMRI mice, i.p.): about 2 g
MT4 cell, concentration reducing the number of viable uninfected cells by 50% [15]: 265 µg/mL
CEM cell, concentration reducing the number of viable uninfected cells by 50% [16]: 280 µg/mL
LD50 ([17]; NMRI, mouse, in vivo, ip): 710 mg/kg
level up to which no toxicity was shown ([17]; mice, intraperitoneal): 400 mg/kg
logP at […] ([18]; 1-octanol/water (0.10 M phosphate buffer)): 2.09
solubility at 20 h ([19]; phosphate buffer, pH 6.8, aqueous buffer, thermodynamic from solid): 7420 µg/mL (≈ 16800 µM)

Nc1ncnc2c1ncn2[C@@H]1O[C@H](CO)[C@@H](O)[C@@H]1O [ara A 3, 9-(β-D-arabinofaranosyl)adenine, reference compound]
rel. Vmax ([9]; compound as ADA substrate, relative to ara A 3 = 1.0): 1.0
rel. Vmax, HSV thymidine kinase [20]: <3.0
effect on the rate of phosphorylation of acyclovir 2 in words ([20]; mixture with acyclovir 2 (w/w=1:1)): did not induce any increase
Km ([21]; apparent Km, 37° C., pH 7.5): 13 mM
rel. Vmax, Vero cell thymidine kinase ([21]; relative to thymidine = 1.0 × 10^2): <3.0
IC50 HSV-1 (KOS) [2]: 8.8 µg/mL (≈ 32.9 µM)
IC50 HSV-2 (G) [3]: >128 µg/mL
IC50 TK+VZV (YS) [4, 22]: >128 µg/mL
IC50 TK−VZV (YS/R) [5]: >128 µg/mL
IC50 HCMV (AD-169) [6]: 27 µg/mL (≈ 101 µM)
HeLa cell, concentration causing microscopically visible change or disruption in about 50% of the cell sheet [7]: 73 µg/mL
Vero cell, concentration causing microscopically visible change or disruption in about 50% of the cell sheet [8]: 89 µg/mL
log P (1-octanol/water) ([18]; P = [substrate]1-octanol/[substrate]H2O, phosphate buffer 0.10 M): −0.50
solubility in water ([19]; phosphate buffer 0.10 M, pH 6.8, agitated 20 h): 480 µg/mL (≈ 1800 µM)
